Converted amounts (≈) assume the structure as drawn. Read-outs that look alike come from different tables or passages of the source.
Columns and labels:
Klebsiella pneumoniae [1] = settings: for MIC: Table 5
Description: (§1) Antimicrobial activity was determined using the broth microdilution method based on the general recommendation of the Clinical and Laboratory Standards Institute. Bacteria were grown in Mueller-Hinton broth at 37° C. until OD625 reached 0.06, and then bacteria were further diluted into 1:20 for later use. […] 10 microliter (μL) of diluted bacteria was mixed with 90 μL of peptides at varying concentrations followed by incubation at 37° C. for 16-18 hours. The MIC is the lowest peptide concentration at which visible growth was inhibited. The MIC value was determined at least twice in independent experiments and typically in 3-4 assays.

[2] = test system: human red blood cells (hRBCs); assay: Hemolytic activity; format: cell-based
Description: The amount of hemoglobin released was measured by the absorbance at 435 nm after a 60-minute incubation with the antimicrobial peptide. The percentage of hRBC lysis was normalized to the amount hemoglobin released by the suspension of the hRBCs in deionized water. The background amount of hRBC lysis was determined by adding phosphate buffered saline (PBS) at the same volume as 8 μM of the peptide to the hRBC for 1 h.
The hemolytic activities of peptides were determined using human red blood cells (hRBCs) (Innovative Research, Inc., cat. # IPLA-WB3-18103). The hRBCs were washed three times with PBS and then resuspended in PBS. The hRBCs solution was mixed with serial dilutions of the peptides in PBS buffer. The reaction mixtures were incubated for 45 min at 37° C. After centrifugation at 94×g for 10 min, the intact hRBCs were pelleted and the hemoglobin released from hRBCs was monitored by measuring the absorbance of the supernatant at 415 nm. The background level of absorbance was measured in sampled incubated with only PBS buffer. 100% hemolysis was determined in sampled incubated with water. The percentage of hemolysis was calculated according to the following equation. Percentage of hemolysis=[(Asample−Ablank)/Awater]*100%
Mammalian cells are thought to be less susceptible to cathelicidin peptides in part because the composition of their membrane will be less likely to interact with the peptides. To address this directly, human red blood cells (hRBCs) were tested for lysis after a 45-minute incubation with the peptides. The total lysis of hRBCs was determined by adding water to the cells. The amount of lysis during handling was determined by the addition of phosphate buffered saline at the same volume as that of the peptides.

Pseudomonas aeruginosa = format: cell-based
Description: as §1

Cultured human cells = assay: MTT cytotoxicity assay; format: cell-based; settings: cultured human cells, compared to controls
[3] = Toxicity of peptides injected intraperitoneally; format: in vivo, mice; settings: intraperitoneal, 10 or 20 μM
Description: FIGS. 23A, B show the efficacy and toxicity of modified peptides in mice. […] The survival of mice injected intraperitoneally with iron dextran at 48 h after intraperitoneal injection of 10 or 20 μM of the modified peptides. […] Vibrio vulnificus (V. v.) strain CMCP6 was injected at 1×10^6 CFU. […] All mice receive iron dextran by intraperitoneal injection. Where indicated, 1 h later 10^6 bacterial CFU in 100 μL was injected into the peritoneum (opposite side). 1 h later, 100 μL of the peptide at the indicated concentration was administered on the same side as the bacterial injection.
Since B22a was effective in preventing infection of V. vulnificus in a surgical incision model, we tested it for efficacy for systemic infection in a mouse septicemia model (1). Groups of mice (strain CD-1) were first injected with […], followed 1 h later with an intraperitoneal injection of 1×10e6 colony forming units of V. vulnificus strain […]. The B22a was then injected intraperitoneally 1 h later and morbidity was monitored hourly for two days.
PB22N and other modified peptides were tested in a septicemic mouse model. V. vulnificus is a highly-pathogenic bacterium, causing septicemia and high mortality. In mice injected intraperitoneally with V. vulnificus, the majority of the mice had to be euthanized within 24 h due to severe symptoms associated with septicemia (FIG. 23B). […] PB22N was effective in preventing mice from succumbing to systemic infection by the highly virulent V. vulnificus.

Klebsiella pneumoniae [4] = assay: microbe, parasite or virus in culture
Description: as §1

Description for Enterobacter cloacae: as §1
Description for Escherichia coli: as §1
Description for Serratia marcescens: as §1

Molecule: Colistin sulfate [reference compound]
- MIC (Klebsiella pneumoniae [1]; Klebsiella pneumonia 27, Carbapenem resistant): >32 µM
- MIC (Klebsiella pneumoniae [1]; Klebsiella pneumonia 49, Carbapenem resistant): 4 µM
- MIC (Klebsiella pneumoniae [1]; Klebsiella pneumonia 83, Carbapenem resistant): 2 µM
- MIC (Klebsiella pneumoniae [1]; Klebsiella pneumonia 84, Carbapenem resistant): 2 µM
- MIC (Klebsiella pneumoniae [1]; Klebsiella pneumonia 88, Carbapenem resistant (NDM1+)): 16 µM
- MIC (Klebsiella pneumoniae [1]; Klebsiella pneumonia 262, Carbapenem resistant (NDM1+)): 16 µM
- MIC (Escherichia coli; Table 5, Escherichia coli ATCC25922, antibiotic resistance none): 1 µM

Molecule: CC[C@H](C)[C@H](NC(=O)[C@H](CCCCN)NC(=O)[C@H](CCC(=O)O)NC(=O)[C@H](CCCCN)NC(=O)[C@H](CO)NC(=O)[C@H](CCCCN)NC(=O)[C@H](CCCNC(=N)N)NC(=O)[C@H](Cc1ccccc1)NC(=O)[C@H](Cc1ccccc1)NC(=O)[C@H](CC(=O)O)NC(=O)CNC(=O)[C@H](CC(C)C)NC(=O)[C@@H](N)CC(C)C)C(=O)NCC(=O)N[C@@H](CCCCN)C(=O)N[C@@H](CCC(=O)O)C(=O)N[C@@H](Cc1ccccc1)C(=O)N[C@@H](CCCCN)C(=O)N[C@@H](CCCNC(=N)N)C(=O)N[C@H](C(=O)N[C@H](C(=O)N[C@@H](CCC(N)=O)C(=O)N[C@@H](CCCNC(=N)N)C(=O)N[C@H](C(=O)N[C@@H](CCCCN)C(=O)N[C@@H](CC(=O)O)C(=O)N[C@@H](Cc1ccccc1)C(=O)N[C@@H](CC(C)C)C(=O)N[C@@H](CCCNC(=N)N)C(=O)N[C@@H](CC(N)=O)C(=O)N[C@@H](CC(C)C)C(=O)N[C@H](C(=O)N1CCC[C@H]1C(=O)N[C@@H](CCCNC(=N)N)C(=O)N[C@H](C(=O)N[C@@H](CCC(=O)O)C(=O)N[C@@H](CO)C(=O)O)[C@@H](C)O)C(C)C)[C@@H](C)CC)C(C)C)[C@@H](C)CC [LL-37, reference compound]
- Minimal inhibitory concentration (Enterobacter cloacae; E. cloacae 4092): >32 µg/mL
- Minimal inhibitory concentration (Enterobacter cloacae; Table 10, Enterobacter cloacae OC4080): 32 µM
- Minimal inhibitory concentration (Enterobacter cloacae; Table 10, Enterobacter cloacae OC4092): >32 µM
- Minimal inhibitory concentration (Serratia marcescens; S. marcescens 4101): >32 µg/mL
- Minimal inhibitory concentration (Serratia marcescens; S. marcescens 4104): >32 µg/mL
- Minimal inhibitory concentration (Serratia marcescens; S. marcescens 7553): >32 µg/mL
- Minimal inhibitory concentration (Serratia marcescens; Table 10, Serratia marcescens 4075A): >32 µM
- Minimal inhibitory concentration (Serratia marcescens; Table 10, Serratia marcescens 4101): >32 µM
- Minimal inhibitory concentration (Serratia marcescens; Table 10, Serratia marcescens 4104): >32 µM
- Minimal inhibitory concentration (Klebsiella pneumoniae [1]; K. pneumoniae 4110): >32 µg/mL
- Minimal inhibitory concentration (Klebsiella pneumoniae [1]; K. pneumoniae ATCC 700603): >32 µg/mL
- Minimal inhibitory concentration (Klebsiella pneumoniae [1]; K. pneumoniae C2): >32 µg/mL
- Minimal inhibitory concentration (Klebsiella pneumoniae [1]; K. pneumoniae OC8893): >32 µg/mL
- Minimal inhibitory concentration (Klebsiella pneumoniae [1]; Table 10, Klebsiella pneumonia ATCC 700603): >32 µM
- Minimal inhibitory concentration (Klebsiella pneumoniae [1]; Table 10, Klebsiella pneumonia C2): >32 µM
- Minimal inhibitory concentration (Klebsiella pneumoniae [1]; Table 10, Klebsiella pneumonia OC4110): >32 µM
- Minimal inhibitory concentration (Klebsiella pneumoniae [1]; Table 10, Klebsiella pneumonia OC8893): >32 µM
- Hemoglobin release from hRBCs ([2]; 2 micromolar, 45-minute incubation (FIG. 17)): a low abundance of hemoglobin outside of the cells was detected
- hRBC lysis ([2]; 2 to 8 μM (FIG. 15)): lysed hRBC when present at 4 or 8 μM
- hRBC lysis with increasing concentration ([2]; LL-37 beyond 10 micromolar, B22a up to 60 micromolar (FIG. 18)): significantly higher hRBC lysis
- Minimal inhibitory concentration (Pseudomonas aeruginosa; P. aeruginosa ATCC 27853): >32 µg/mL
- Minimal inhibitory concentration (Pseudomonas aeruginosa; Table 10, Pseudomonas aeruginosa ATCC 27853): >32 µM
- Minimal inhibitory concentration (Pseudomonas aeruginosa; Table 10, Pseudomonas aeruginosa OC4083): >32 µM
- Minimal inhibitory concentration (Pseudomonas aeruginosa; Table 10, Pseudomonas aeruginosa PAO1): 32 µM
- Minimal inhibitory concentration (Pseudomonas aeruginosa; Table 10, Pseudomonas aeruginosa PAO1 oprD): 32 µM
- Minimal inhibitory concentration (Escherichia coli; E. coli 4075): >32 µg/mL
- Minimal inhibitory concentration (Escherichia coli; E. coli J53 AzideR): >32 µg/mL
- Minimal inhibitory concentration (Escherichia coli; E. coli MC4100): >32 µg/mL
- Minimal inhibitory concentration (Escherichia coli; Table 10, Escherichia coli ATCC 25922): 32 µM
- Minimal inhibitory concentration (Escherichia coli; Table 10, Escherichia coli ATCC 35218): 32 µM
- Minimal inhibitory concentration (Escherichia coli; Table 10, Escherichia coli IU342): 32 µM
- Minimal inhibitory concentration (Escherichia coli; Table 10, Escherichia coli J53 AzideR): >32 µM
- Minimal inhibitory concentration (Escherichia coli; Table 10, Escherichia coli MC4100a): >32 µM
- Minimal inhibitory concentration (Escherichia coli; Table 10, Escherichia coli OC4075): >32 µM
- Minimal inhibitory concentration (Escherichia coli; Table 10, Escherichia coli UT189): >32 µM
- Cytotoxicity, MTT assay (Cultured human cells): no increased cytotoxicity compared to the controls

Molecule: Ac-FRKKLKKLFKKLSPVIPLLKLG-NH2 [AB22a]
- Toxicity signs in mice injected with peptide [3]: no obvious effects on mice behavior or appearance
- Toxicity signs in mice injected with peptide ([3]; listed as AB22N): no obvious symptoms were observed

Molecule: C[C@@H](O)[C@H]1C(=O)N2C(C(=O)O)=C(S[C@@H]3CN[C@H](C(=O)N(C)C)C3)[C@H](C)[C@H]12 [Meropenem]
- MIC (Klebsiella pneumoniae [4]; Table 8, clinical isolate 88 (NDM1+)): > 16 µg/mL
- MIC (Klebsiella pneumoniae [4]; Table 8, clinical isolate 92): > 16 µg/mL
- MIC (Klebsiella pneumoniae [4]; Table 8, clinical isolate 109): > 16 µg/mL
- MIC (Klebsiella pneumoniae [4]; Table 8, clinical isolate 113): > 16 µg/mL
- MIC (Klebsiella pneumoniae [4]; Table 8, clinical isolate 116): > 16 µg/mL
- MIC (Klebsiella pneumoniae [4]; Table 8, clinical isolate 118): > 16 µg/mL
- MIC (Klebsiella pneumoniae [4]; Table 8, clinical isolate 136): > 16 µg/mL
- MIC (Klebsiella pneumoniae [4]; Table 8, clinical isolate 170): > 32 µg/mL
- MIC (Klebsiella pneumoniae [4]; Table 8, clinical isolate 256): 4 µg/mL (≈ 10.4 µM)
- MIC (Klebsiella pneumoniae [4]; Table 8, clinical isolate 262 (NDM1+)): > 6 µg/mL
- MIC (Klebsiella pneumoniae [4]; Table 8, clinical isolate 265): > 64 µg/mL
- MIC (Klebsiella pneumoniae [4]; Table 8, clinical isolate 280): > 64 µg/mL
- MIC (Klebsiella pneumoniae [4]; Table 8, clinical isolate 281): > 64 µg/mL
- MIC (Klebsiella pneumoniae [4]; Table 8, clinical isolate 284): > 64 µg/mL
- MIC (Klebsiella pneumoniae [4]; Table 8, clinical isolate 286): > 64 µg/mL
- MIC (Klebsiella pneumoniae [4]; Table 8, clinical isolate 328): > 16 µg/mL
- MIC (Klebsiella pneumoniae [4]; Table 8, clinical isolate 330): > 16 µg/mL
- MIC (Klebsiella pneumoniae [4]; Table 8, clinical isolate 361): > 16 µg/mL
- MIC (Klebsiella pneumoniae [4]; Table 8, clinical isolate 365): > 16 µg/mL
- MIC (Klebsiella pneumoniae [4]; Table 8, clinical isolate 399): > 16 µg/mL
- MIC (Klebsiella pneumoniae [4]; Table 11, clinical isolate 88 (NDM1+)): > 16 µg/mL
- MIC (Klebsiella pneumoniae [4]; Table 11, clinical isolate 92): > 16 µg/mL
- MIC (Klebsiella pneumoniae [4]; Table 11, clinical isolate 116): > 16 µg/mL
- MIC (Klebsiella pneumoniae [4]; Table 11, clinical isolate 118): > 16 µg/mL
- MIC (Klebsiella pneumoniae [4]; Table 11, clinical isolate 136): > 16 µg/mL
- MIC (Klebsiella pneumoniae [4]; Table 11, clinical isolate 170): > 32 µg/mL
- MIC (Klebsiella pneumoniae [4]; Table 11, clinical isolate 256): 4 µg/mL (≈ 10.4 µM)
- MIC (Klebsiella pneumoniae [4]; Table 11, clinical isolate 262 (NDM1+)): ≥ 64 µg/mL
- MIC (Klebsiella pneumoniae [4]; Table 11, clinical isolate 265): ≥ 64 µg/mL
- MIC (Klebsiella pneumoniae [4]; Table 11, clinical isolate 280): ≥ 64 µg/mL
- MIC (Klebsiella pneumoniae [4]; Table 11, clinical isolate 281): > 64 µg/mL
- MIC (Klebsiella pneumoniae [4]; Table 11, clinical isolate 284): ≥ 64 µg/mL
- MIC (Klebsiella pneumoniae [4]; Table 11, clinical isolate 286): ≥ 64 µg/mL
- MIC (Klebsiella pneumoniae [4]; Table 11, clinical isolate 328): ≥ 16 µg/mL
- MIC (Klebsiella pneumoniae [4]; Table 11, clinical isolate 330): ≥ 16 µg/mL
- MIC (Klebsiella pneumoniae [4]; Table 11, clinical isolate 361): ≥ 16 µg/mL
- MIC (Klebsiella pneumoniae [4]; Table 11, clinical isolate 365): ≥ 16 µg/mL
- MIC (Klebsiella pneumoniae [4]; Table 11, clinical isolate 399): ≥ 16 µg/mL
- MIC (Klebsiella pneumoniae [4]; Table 11, clinical isolate 110113): > 16 µg/mL
